Source: US10080756B2, “Combination methods for treating cancers” (Gilead Sciences, Inc., priority 2014, dated 2018)
pEC50: −log10 of the molar value.

How the values were obtained:
Assay type in all cases: cell-based
[1] = system: SU-DHL-4; experiment: Cell Titer Glo viability assay, SU-DHL-4; conditions: Homo sapiens; SU-DHL-4, DLBCL; single agent; 72 hours; read-out: Inhibition of Viability, EC50
Procedure: (§1) All procedures were performed at Gilead Sciences, Inc. in Branford, The compound of formula (I), cyclophosphamide, doxorubicin and vincristine sulfate were dissolved in DMSO to prepare stock solutions that were serially diluted three-fold in DMSO in a 96 well plate format at 1000× so the final starting assay concentrations tested would be 10 μM, 200 μM, 10 μM, and 1 μM respectively, for each compound. Compound plates were diluted 1:100 in RPMI without serum or additives creating a 10× stock. Cells were seeded into a 96-well plate at 10,000-20,000 cells per well in 100 μl of growth media appropriate to the cell line supplemented with 100 U/L penicillin-streptomycin. OCI-Ly3, OCI-Ly4 and OCI-Ly7 were grown in Iscove's+20% FBS, OCI-Ly19 was grown in alphaMEM+20% FBS, and all other cell lines were grown in RPMI+10% FBS. To each well, 11 μl of 10× compound was added in a final concentration of 0.1% DMSO and cells were incubated at 37° C. in 5% CO2 for 72 hours. Cell viability was assessed with Cell Titer Glo (Promega, Madison, Wis.) following the manufacturer's protocol on an Envision plate reader (Perkin Elmer, Waltham, Mass.). EC50 values were determined using a four parameter variable slope model with GraphPad Prism 6.0 software. All EC50 values represent mean values of from duplicate dose response curves.

[2] = system: SU-DHL-6; experiment: Cell Titer Glo viability assay, SU-DHL-6; conditions: Homo sapiens; SU-DHL-6, DLBCL; single agent; 72 hours; read-out: Inhibition of Viability, EC50
Procedure: as §1

[3] = system: SU-DHL-10; experiment: Cell Titer Glo viability assay, SU-DHL-10; conditions: Homo sapiens, SU-DHL10; SU-DHL-10, DLBCL; single agent; 72 hours; read-out: Inhibition of Viability, EC50
Procedure: as §1

[4] = system: Karpas 422; experiment: Cell Titer Glo viability assay, Karpas 422; conditions: Homo sapiens; Karpas 422, DLBCL; single agent; 72 hours; read-out: Inhibition of Viability, EC50
Procedure: as §1

[5] = system: OCI-LY3; experiment: Cell Titer Glo viability assay, OCI-LY3; conditions: Homo sapiens; OCI-LY3, DLBCL; single agent; 72 hours; read-out: Inhibition of Viability, EC50
Procedure: as §1

[6] = system: OCI-LY4; experiment: Cell Titer Glo viability assay, OCI-LY4; conditions: OCI-LY4, DLBCL; single agent; 72 hours; read-out: Inhibition of Viability, EC50
Procedure: as §1

[7] = system: OCI-LY7; experiment: Cell Titer Glo viability assay, OCI-LY7; conditions: Homo sapiens; OCI-LY7, DLBCL; single agent; 72 hours; read-out: Inhibition of Viability, EC50
Procedure: as §1

[8] = system: OCI-LY19; experiment: Cell Titer Glo viability assay, OCI-LY19; conditions: Homo sapiens; OCI-LY19, DLBCL; single agent; 72 hours; read-out: Inhibition of Viability, EC50
Procedure: as §1

[9] = system: Pfeiffer; experiment: Cell Titer Glo viability assay, Pfeiffer; conditions: Homo sapiens, DLBCL, single agent, 72 hours, read-out: Inhibition of Viability, EC50
Procedure: as §1

[10] = system: Mino; experiment: Cell Titer Glo viability assay, Mino; conditions: Homo sapiens; Mino, MCL; single agent; 72 hours; read-out: Inhibition of Viability, EC50
Procedure: as §1

[11] = system: KMS-11; experiment: Cell Titer Glo viability assay, KMS-11; conditions: Homo sapiens; KMS-11, MM; single agent; 72 hours; read-out: Inhibition of Viability, EC50
Procedure: as §1

[12] = system: MM1.S; experiment: Cell Titer Glo viability assay, MM1.S; conditions: Homo sapiens, MM, single agent, 72 hours, read-out: Inhibition of Viability, EC50
Procedure: as §1

[13] = system: OPM-2; experiment: Cell Titer Glo viability assay, OPM-2; conditions: Homo sapiens; OPM-2, MM; single agent; 72 hours; read-out: Inhibition of Viability, EC50
Procedure: as §1

[14] = system: RPMI-8266; experiment: Cell Titer Glo viability assay, RPMI-8266; conditions: RPMI8266; RPMI-8266, MM; single agent; 72 hours; read-out: Inhibition of Viability, EC50
Procedure: as §1

[15] = system: WSU-FSCCL; experiment: Cell Titer Glo viability assay, WSU-FSCCL; conditions: WSU-FSCCL, FL; single agent; 72 hours; read-out: Inhibition of Viability, EC50
Procedure: as §1

[16] = system: WSU-NHL; experiment: Cell Titer Glo viability assay, WSU-NHL; conditions: Homo sapiens, FL, single agent, 72 hours, read-out: Inhibition of Viability, EC50
Procedure: as §1

Row | Compound | pEC50 [1] | pEC50 [2] | pEC50 [3] | pEC50 [4] | pEC50 [5] | pEC50 [6] | pEC50 [7] | pEC50 [8] | pEC50 [9] | pEC50 [10] | pEC50 [11] | pEC50 [12] | pEC50 [13] | pEC50 [14] | pEC50 [15] | pEC50 [16]
1 | c1cn2cc(-c3ccc4cn[nH]c4c3)nc(Nc3ccc(N4CCOCC4)cc3)c2n1 [Compound of Formula I, 6-(1H-indazol-6-yl)-N-(4-morpholinophenyl)imidazo[1,2-a]pyrazin-8-amine] | < 5.52 | < 5.52 | < 5.52 | < 5.52 | < 5.52 | < 5.52 | < 5.52 | < 5.52 | < 5.52 | < 5.52 | < 5.52 | < 5.52 | < 5.52 | < 5.52 | < 5.52 | < 5.52
2 | CC[C@]1(O)C[C@H]2CN(CCc3c([nH]c4ccccc34)[C@@](C(=O)OC)(c3cc4c(cc3OC)N(C=O)[C@H]3[C@@](O)(C(=O)OC)[C@H](OC(C)=O)[C@]5(CC)C=CCN6CC[C@]43[C@@H]65)C2)C1 [Vincristine, vincristine] | 7.12 | 7.92 | 7.35 | 7.21 | 7.92 | > 9.00 | 8.34 | 8.92 | 8.40 | 7.38 | 6.99 | 7.23 | 7.01 | 7.17 | 7.24 | 7.41
